# Measured values: US6133233A, “Peptide modulation of reperfusion injury” (Kansas State University Research Foundation, priority 1998, dated 2000)
# Assays:
# [1] = tested on: leukocyte adherence and extravasation; conditions: cited from earlier work
# [2] = tested on: neutrophil oxidase activity; experiment: Superoxide anion production in whole neutrophils (SOD-inhibitable ferricytochrome c reduction, PMA); type: cell-based; conditions: concentrations 5-10 μM
# Protocol: (§1) In these experiments, superoxide anion production by neutrophils was determined by the superoxide dismutase-inhibitable reduction of ferricytochrome c.
# (§2) Four samples were prepared for each animal: (1) neutrophils (1×10^6 cells) in Hanks' balanced salt solution (HBSS; without phenol red) mixed with 100 μl (80 μM) of ferricytochrome c, 10 μl (0.1 μg) phorbol myristate acetate (PMA), and 100 μl (300 U) of superoxide dismutase (SOD); (2) cells treated with ferricytochrome c only; (3) cells treated with ferricytochrome c and PMA; and (4) cells treated with ferricytochrome c and SOD. The mixtures were incubated at 39° C. for 20 min. and then centrifuged at 4° C. (350×g) for 5 min. Cell-free supernatant (200 μl) was transferred to flat-bottom 96-well plates, and OD was read at 550 nm using HBSS as the blank. Production of superoxide anion was calculated using the following formula: OD of [(3+4)-(1+2)]×190.5=nm superoxide/1 ×10^6 cells/20 min.
# [3] = tested on: intact human neutrophils; experiment: Superoxide anion generation in intact human neutrophils; type: cell-based
# Protocol: as §1, §2
# [4] = tested on: bovine pulmonary artery endothelial (BPAE) cells; experiment: Superoxide production in high K+ treated BPAE cells (dichlorodihydrofluorescein); type: cell-based; conditions: 10 μM, 30 min
# Protocol: PR-39 (SEQ ID No. 1) was also tested in a cell other than neutrophils, namely bovine pulmonary artery endothelial (BPAE) cells. In these cells, membrane depolarization induced by high K^+ treatment results in the production of superoxide anion by an endothelial NADPH oxidase enzyme that may be similar to the oxidase found in neutrophils. In these experiments, cultured BPAE cells were loaded with an oxidation-sensitive dye, dichlorodihydrofluorescein, then treated with high K^+, plus or minus PR-39 (SEQ ID No. 1) or PR-26 (SEQ ID No. 2), for 30 min. Cells were then scraped, pelleted, washed, and sonicated. Fluorescence of the supernatant was then measured to assess superoxide production.
# [5] = tested on: neutrophil chemotaxis; experiment: Neutrophil microchemotaxis assay; type: cell-based; conditions: rat neutrophils; PR-39 10 μM
# Excerpt: A microchemotaxis assay was used to examine the effect of PR-39 (SEQ ID No. 1) and another basic, PXXP-containing antimicrobial peptide, Bac5 (SEQ ID No. 7), on neutrophil chemotaxis alone and in combination. Whole blood was obtained from 250-350 g Sprague-Dawley rats by terminal cardiac puncture into acid citrate dextrose solution. Neutrophils were isolated by dextran sedimentation, followed by density-gradient centrifugation and hypotonic lysis to remove contaminating erythrocytes. Micropore filters (5 μM-pore polycarbonate membrane) were used to separate the lower and upper chambers of the microchemotaxis chamber. Attractants to be tested were diluted in RPMI medium and added (35 μl) to the lower wells of the chamber; 50 μl of the cell suspension ([…]) was added to the upper chamber. Chambers were placed in a humidified atmosphere of 5% CO2 in air at 37° C. for 40 min. Cells on the underside of the filters were fixed, stained, and counted using high-power brightfield microscopy. For each sample, four test wells containing chemoattractant were used. The total number of neutrophils in five fields was counted for each well. All results are expressed as a chemotaxis index defined as […].
# [6] = tested on: reactive oxygen species; experiment: Reactive oxygen (oxidant) production after mesenteric ischemia-reperfusion, dihydrorhodamine 123 intravital fluorescence; type: in vivo, rat; conditions: rats
# Protocol: (§3) In this example, the efficiency of PR-39 (SEQ ID NO: 1) was tested in an in vivo model of reperfusion. Measurements of reactive oxygen release, neutrophil adherence to postcapillary venules and neutrophil emigration through venular endothelium, and vascular leakage were made in the presence and absence of PR-39 (SEQ ID No. 1).
# (§4) In this example, male Sprague-Dawley rats weighing 220-250 g each were used. The rats were anesthetized by intraperitoneal injection of pentobarbital (30-40 mg/kg rat body weight) and the jugular vein of each rat was cannulated for reagent injection. The carotid artery of each rat was also cannulated for measurements of mean arterial blood pressure using a pressure transducer (Model P23a, Statham) and physiological recorder (Grass Instruments). […] The images were captured with a charge-coupled device camera (Model C2400-60, Hamamatsu Photonics) which was mounted on the microscope, projected onto a television monitor (Model PVM-2030, Sony) and recorded using a videocassette recorder (Model HS-U65, Mitsubishi). […]
# (§5) Single, unbranched venules with diameters between 25-35 μm and lengths longer than 150 μm (both measured with a video caliper, Microcirculation Research Institute, Texas A&M University) were selected for the studies. […]
# In more detail, generation of reactive oxygen levels were measured by the dihydrorhodamine 123 dye. […]
# [7] = tested on: venular protein leakage; experiment: Albumin leakage through mesenteric venules (vascular integrity) after ischemia-reperfusion; type: in vivo, rat; conditions: rats, PR-39 pretreatment
# Protocol: An assessment of vascular integrity was made by quantification of albumin leakage through mesenteric venules. Three groups of Sprague-Dawley rats (6 rats/group and respectively labeled control, I/R and I/R+PR-39) were obtained. […] The control group was subjected to a similar surgical preparation, but without occlusion of the mesenteric artery or PR-39 (SEQ ID No. 1) administration. Fifty mg/kg fluorescein isothiocyanate-labeled bovine albumin was administered IV to each of the rats of each group, 15 min. prior to release of occlusion of the rats of the I/R and I/R+PR-39 (SEQ ID No. 1) groups. Fluorescence intensities within three segments of the venule under study (Iv) and in three adjacent areas of interstitium (Ii) were detected using a SIT camera (Model C-2400-08; Hamamatsu Photonics). Measurements were made at the basal, 20-30 min., and 50-60 min. time points using a computer-assisted digital imaging processor (NIH Image 1.35 on a Macintosh computer). An index of albumin leakage was expressed as the ratio of Ii to Iv at each time.
# [8] = tested on: leukocyte emigration through venular endothelium; experiment: Leukocyte emigration through venular endothelium after ischemia-reperfusion; type: in vivo, rat; conditions: rats, pretreatment with about 5 μM
# Protocol: as §3
# as §4, with “injection.” for “injection. The carotid artery of each rat was also cannulated for measurements of mean arterial blood pressure using a pressure transducer (Model P23a, Statham) and physiological recorder (Grass Instruments).”
# as §5
# (§6) The number of adherent and transmigrating leukocytes was determined off-line using videotaped images. […] Adherent leukocytes were expressed as the number per 100 μm length of venule. The number of emigrating leukocytes were also determined off-line and were expressed as the number per microscopic field.
# [9] = tested on: leukocyte adherence to mesenteric venular endothelium; experiment: Leukocyte adherence to mesenteric venular endothelium after ischemia-reperfusion; type: in vivo, rat; conditions: rats, pretreatment with about 5 μM
# Protocol: as §3
# as §4, with “injection.” for “injection. The carotid artery of each rat was also cannulated for measurements of mean arterial blood pressure using a pressure transducer (Model P23a, Statham) and physiological recorder (Grass Instruments).”
# as §5, §6
# [10] = 2 μM adenosine, cat mesenteric model
compound,measurement,setting,value
Nc1ncnc2c1ncn2[C@@H]1O[C@H](CO)[C@@H](O)[C@H]1O [adenosine],Reduction of reperfusion injury-induced adhesion of neutrophils,[1]; [10],65%
same,Reduction of reperfusion injury-induced extravasation of neutrophils,[1]; [10],32%
same,Reduction of oxidant release,"[1]; adenosine treatment, literature",20%
"Bac5: basic, PXXP-containing antimicrobial peptide (RFRPPIRRPPIRPPFYPPFRPPIRPPIFPPIRPPFRPPLGPFP)",Inhibition of neutrophil oxidase activity (superoxide anion generation in intact neutrophils),[2],inhibition of superoxide anion generation
"Bac7: cationic, proline-rich, PXXP-containing peptide (RRIRPRPPRLPRPRPRPLYC)",Inhibition of neutrophil oxidase activity (superoxide anion generation in intact neutrophils),[2],inhibition of superoxide anion generation
"C7: non-naturally occurring, cationic, PXXP-containing peptide (RRGPRHPQTRLPRPLPDP)",Inhibition of superoxide anion generation in intact human neutrophils,[3],inhibition of superoxide anion generation
"PR-39: proline/arginine-rich peptide of 39 residues (29/39 proline and arginine), most preferred peptide (RRRPRPPYLPRPRPPPFFPPRLPPRIPPGFPPRFPPRFP)",Inhibition of neutrophil oxidase activity (superoxide anion generation in intact neutrophils),[2],inhibition of superoxide anion generation
same,Oxidase activity (superoxide production) in pulmonary endothelium,[4],decrease oxidase activity
same,"Neutrophil chemotaxis, examined alone",[5],chemotactic for neutrophils
same,Oxidant release (reactive oxygen production),"[6]; PR-39 pretreatment, comparison with adenosine",complete prevention of oxidant release
same,Oxidant production,"[6]; about 5 μM PR-39 pre-ischemia, 20 min ischemia, 30 minutes after resumption of mesenteric venular circulation",significantly inhibited
same,Vascular integrity (albumin leakage index Ii/Iv),[7],prevented loss of vascular integrity
same,Basal neutrophil emigration,[8]; basal,appeared to be diminished
same,Transvascular neutrophil emigration,[8]; both post-release time points,no migrating neutrophils observed
same,Neutrophil adhesion to venular endothelium,[9],no apparent endothelium neutrophil interaction in excess of basal levels
"platelet activating factor [PAF, reference compound]","Neutrophil chemotaxis, examined alone",[5],chemotactic for neutrophils
